ChEMBL document CHEMBL3112400, “Cannabinoid agonists showing BuChE inhibition as potential therapeutic agents for Alzheimer's disease” (Eur J Med Chem, 2014)

What follows are compounds tested against Cholinesterase (Homo sapiens, UniProt P06276) (assay: Inhibition of human BuChE using butyrylthiocholine as substrate by Ellman's method).
Cholinesterase (Homo sapiens, UniProt P06276), sequence (P06276 whole entry): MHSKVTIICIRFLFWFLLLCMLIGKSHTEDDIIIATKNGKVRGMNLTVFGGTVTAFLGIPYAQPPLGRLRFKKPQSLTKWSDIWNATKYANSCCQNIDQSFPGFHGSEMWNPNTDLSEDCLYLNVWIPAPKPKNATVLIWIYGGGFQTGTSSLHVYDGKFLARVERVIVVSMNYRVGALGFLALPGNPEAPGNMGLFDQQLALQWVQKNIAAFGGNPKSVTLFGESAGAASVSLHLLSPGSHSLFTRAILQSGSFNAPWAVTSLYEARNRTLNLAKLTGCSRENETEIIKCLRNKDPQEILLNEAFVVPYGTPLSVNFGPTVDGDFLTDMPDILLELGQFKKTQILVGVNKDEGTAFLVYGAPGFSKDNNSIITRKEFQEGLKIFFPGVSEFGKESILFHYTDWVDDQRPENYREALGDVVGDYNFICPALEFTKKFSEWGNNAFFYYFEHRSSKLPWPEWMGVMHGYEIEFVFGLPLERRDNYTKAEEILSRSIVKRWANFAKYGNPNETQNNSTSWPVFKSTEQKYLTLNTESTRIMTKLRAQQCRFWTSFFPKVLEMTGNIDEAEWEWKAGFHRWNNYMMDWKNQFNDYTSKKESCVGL

Row | Structure (SMILES) | IC50 [µM]
1 | O=[N+]([O-])c1ccc2c(c1)c(OCc1ccc3ccccc3c1)nn2Cc1ccc2ccccc2c1 | > 10
2 | c1ccc2c(COc3nn(Cc4cccc5ccccc45)c4ccccc34)cccc2c1 | > 10
3 | Nc1ccc2c(c1)c(OCc1ccccc1)nn2Cc1ccccc1 | > 10
4 | CCCCCn1nc(OCc2ccc3ccccc3c2)c2cc([N+](=O)[O-])ccc21 | > 10
5 | CCCCCn1nc(OCc2ccc(OC)cc2)c2cc([N+](=O)[O-])ccc21 | > 10
6 | O=[N+]([O-])c1ccc2c(c1)c(OCC1CCCCC1)nn2Cc1ccccc1 | > 10
7 | COc1ccc(COc2nn(CCN(C(C)C)C(C)C)c3ccc([N+](=O)[O-])cc23)cc1 | > 100
8 | O=[N+]([O-])c1ccc2c(c1)c(OCc1ccc3ccccc3c1)nn2CCN1CCOCC1 | > 10
9 | c1ccc(COc2nn(Cc3ccccc3)c3ccccc23)cc1 | > 25
10 | O=[N+]([O-])c1ccc2c(c1)c(OCc1ccc3ccccc3c1)nn2Cc1ccccc1 | > 10
11 | O=[N+]([O-])c1ccc2c(c1)c(OCc1ccccc1)nn2Cc1ccccc1 | > 10
12 | CCCCCOc1nn(CCCCC)c2ccc([N+](=O)[O-])cc12 | > 10
13 | O=[N+]([O-])c1ccc2c(c1)c(OCc1cccc3ccccc13)nn2Cc1cccc2ccccc12 | > 10

The compounds below were run against Cholinesterase (Equus caballus, UniProt P81908) (assay: Inhibition of horse serum BuChE using butyrylthiocholine as substrate by Ellman's method).
Cholinesterase (Equus caballus, UniProt P81908), sequence (P81908 whole entry): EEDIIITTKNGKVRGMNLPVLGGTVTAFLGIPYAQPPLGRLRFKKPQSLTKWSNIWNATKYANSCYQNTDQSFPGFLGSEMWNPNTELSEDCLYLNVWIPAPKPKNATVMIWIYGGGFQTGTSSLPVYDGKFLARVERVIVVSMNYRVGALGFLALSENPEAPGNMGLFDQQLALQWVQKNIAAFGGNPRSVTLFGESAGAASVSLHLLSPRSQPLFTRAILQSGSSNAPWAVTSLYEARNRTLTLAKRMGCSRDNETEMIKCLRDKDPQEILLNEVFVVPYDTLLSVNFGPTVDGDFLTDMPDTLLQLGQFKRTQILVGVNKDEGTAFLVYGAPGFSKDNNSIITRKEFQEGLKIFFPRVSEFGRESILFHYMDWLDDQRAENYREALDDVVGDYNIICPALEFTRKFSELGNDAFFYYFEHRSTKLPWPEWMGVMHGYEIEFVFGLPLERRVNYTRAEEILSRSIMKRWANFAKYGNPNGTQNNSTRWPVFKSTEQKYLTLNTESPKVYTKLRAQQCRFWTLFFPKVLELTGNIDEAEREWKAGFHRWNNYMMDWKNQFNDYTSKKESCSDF

Row | Structure (SMILES) | IC50 [µM]
14 | O=[N+]([O-])c1ccc2c(c1)c(OCc1ccc3ccccc3c1)nn2Cc1ccc2ccccc2c1 | > 10
15 | Nc1ccc2c(c1)c(OCc1ccccc1)nn2Cc1ccccc1 | > 10
16 | CCCCCn1nc(OCc2ccc3ccccc3c2)c2cc([N+](=O)[O-])ccc21 | > 10
17 | CCCCCn1nc(OCc2ccc(OC)cc2)c2cc([N+](=O)[O-])ccc21 | > 10
18 | O=[N+]([O-])c1ccc2c(c1)c(OCC1CCCCC1)nn2Cc1ccccc1 | > 10
19 | O=[N+]([O-])c1ccc2c(c1)c(OCc1ccc3ccccc3c1)nn2CCN1CCOCC1 | > 10
20 | O=[N+]([O-])c1ccc2c(c1)c(OCc1ccc3ccccc3c1)nn2Cc1ccccc1 | > 10
21 | O=[N+]([O-])c1ccc2c(c1)c(OCc1ccccc1)nn2Cc1ccccc1 | > 10
22 | CCCCCOc1nn(CCCCC)c2ccc([N+](=O)[O-])cc12 | > 10

The compounds below were run against Cannabinoid receptor 2 (Homo sapiens, UniProt P34972) (assay: Displacement of [3H]-CP55940 from human CB2 receptor transfected in HEK-293EBNA cells after 90 mins by luminescence counting analysis).
Cannabinoid receptor 2, sequence (P34972 whole entry): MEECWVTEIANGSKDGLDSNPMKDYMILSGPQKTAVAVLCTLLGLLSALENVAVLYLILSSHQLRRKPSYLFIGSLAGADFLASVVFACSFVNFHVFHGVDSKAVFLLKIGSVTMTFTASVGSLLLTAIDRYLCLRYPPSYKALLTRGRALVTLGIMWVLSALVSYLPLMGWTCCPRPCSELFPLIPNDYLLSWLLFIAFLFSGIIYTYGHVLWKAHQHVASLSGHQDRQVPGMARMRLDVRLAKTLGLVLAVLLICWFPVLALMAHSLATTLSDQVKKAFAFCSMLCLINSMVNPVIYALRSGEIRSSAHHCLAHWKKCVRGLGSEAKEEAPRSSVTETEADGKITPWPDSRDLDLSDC
Type: cell-based

Row | Structure (SMILES) | Ki [µM]
23 | O=[N+]([O-])c1ccc2c(c1)c(OCc1ccc3ccccc3c1)nn2Cc1ccc2ccccc2c1 | > 10
24 | c1ccc2c(COc3nn(Cc4cccc5ccccc45)c4ccccc34)cccc2c1 | > 10
25 | Nc1ccc2c(c1)c(OCc1ccccc1)nn2Cc1ccccc1 | 1.6
26 | CCCCCn1nc(OCc2ccc3ccccc3c2)c2cc([N+](=O)[O-])ccc21 | 1.37
27 | CCCCCn1nc(OCc2ccc(OC)cc2)c2cc([N+](=O)[O-])ccc21 | 0.49
28 | O=[N+]([O-])c1ccc2c(c1)c(OCC1CCCCC1)nn2Cc1ccccc1 | 0.09
29 | COc1ccc(COc2nn(CCN(C(C)C)C(C)C)c3ccc([N+](=O)[O-])cc23)cc1 | 9
30 | O=[N+]([O-])c1ccc2c(c1)c(OCc1ccc3ccccc3c1)nn2CCN1CCOCC1 | 0.5
31 | c1ccc(COc2nn(Cc3ccccc3)c3ccccc23)cc1 | 3.51
32 | O=[N+]([O-])c1ccc2c(c1)c(OCc1ccc3ccccc3c1)nn2Cc1ccccc1 | 0.4
33 | O=[N+]([O-])c1ccc2c(c1)c(OCc1ccccc1)nn2Cc1ccccc1 | 0.4
34 | CCCCCOc1nn(CCCCC)c2ccc([N+](=O)[O-])cc12 | 0.68
35 | O=[N+]([O-])c1ccc2c(c1)c(OCc1cccc3ccccc13)nn2Cc1cccc2ccccc12 | 0.24

What follows are compounds tested against Acetylcholinesterase (Homo sapiens, UniProt P22303) (assay: Inhibition of human AChE using acetylthiocholine as substrate by Ellman's method).
Acetylcholinesterase, sequence (P22303 whole entry): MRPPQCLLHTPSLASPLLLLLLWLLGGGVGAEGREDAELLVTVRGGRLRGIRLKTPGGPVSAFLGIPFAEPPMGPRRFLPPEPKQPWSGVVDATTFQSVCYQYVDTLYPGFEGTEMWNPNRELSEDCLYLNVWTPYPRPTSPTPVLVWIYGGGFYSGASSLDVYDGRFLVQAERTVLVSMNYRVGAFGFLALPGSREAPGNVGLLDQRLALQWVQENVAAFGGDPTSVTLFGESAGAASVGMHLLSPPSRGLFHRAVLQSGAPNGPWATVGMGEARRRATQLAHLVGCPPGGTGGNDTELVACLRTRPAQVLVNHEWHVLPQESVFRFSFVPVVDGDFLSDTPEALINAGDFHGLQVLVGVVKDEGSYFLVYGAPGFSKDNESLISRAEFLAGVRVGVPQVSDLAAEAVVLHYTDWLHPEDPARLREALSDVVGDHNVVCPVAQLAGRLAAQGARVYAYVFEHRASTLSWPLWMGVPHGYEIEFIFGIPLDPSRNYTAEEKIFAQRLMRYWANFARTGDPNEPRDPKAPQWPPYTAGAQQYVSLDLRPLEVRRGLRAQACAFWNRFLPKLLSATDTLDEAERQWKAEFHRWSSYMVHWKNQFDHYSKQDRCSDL

Row | Structure (SMILES) | IC50 [µM]
36 | O=[N+]([O-])c1ccc2c(c1)c(OCc1ccc3ccccc3c1)nn2Cc1ccc2ccccc2c1 | > 10
37 | c1ccc2c(COc3nn(Cc4cccc5ccccc45)c4ccccc34)cccc2c1 | > 10
38 | CCCCCn1nc(OCc2ccc3ccccc3c2)c2cc([N+](=O)[O-])ccc21 | 8.2
39 | CCCCCn1nc(OCc2ccc(OC)cc2)c2cc([N+](=O)[O-])ccc21 | 9.7
40 | O=[N+]([O-])c1ccc2c(c1)c(OCC1CCCCC1)nn2Cc1ccccc1 | > 10
41 | COc1ccc(COc2nn(CCN(C(C)C)C(C)C)c3ccc([N+](=O)[O-])cc23)cc1 | 91
42 | O=[N+]([O-])c1ccc2c(c1)c(OCc1ccc3ccccc3c1)nn2CCN1CCOCC1 | > 10
43 | c1ccc(COc2nn(Cc3ccccc3)c3ccccc23)cc1 | 2.9
44 | O=[N+]([O-])c1ccc2c(c1)c(OCc1ccc3ccccc3c1)nn2Cc1ccccc1 | 6.3
45 | O=[N+]([O-])c1ccc2c(c1)c(OCc1ccccc1)nn2Cc1ccccc1 | 7.3
46 | CCCCCOc1nn(CCCCC)c2ccc([N+](=O)[O-])cc12 | 4.2
47 | O=[N+]([O-])c1ccc2c(c1)c(OCc1cccc3ccccc13)nn2Cc1cccc2ccccc12 | 6.7

The compounds below were run against Cannabinoid receptor 1 (Homo sapiens, UniProt P21554) (assay: Displacement of [3H]-CP55940 from human CB1 receptor transfected in HEK-293EBNA cells after 90 mins by luminescence counting analysis).
Cannabinoid receptor 1, sequence (P21554 whole entry): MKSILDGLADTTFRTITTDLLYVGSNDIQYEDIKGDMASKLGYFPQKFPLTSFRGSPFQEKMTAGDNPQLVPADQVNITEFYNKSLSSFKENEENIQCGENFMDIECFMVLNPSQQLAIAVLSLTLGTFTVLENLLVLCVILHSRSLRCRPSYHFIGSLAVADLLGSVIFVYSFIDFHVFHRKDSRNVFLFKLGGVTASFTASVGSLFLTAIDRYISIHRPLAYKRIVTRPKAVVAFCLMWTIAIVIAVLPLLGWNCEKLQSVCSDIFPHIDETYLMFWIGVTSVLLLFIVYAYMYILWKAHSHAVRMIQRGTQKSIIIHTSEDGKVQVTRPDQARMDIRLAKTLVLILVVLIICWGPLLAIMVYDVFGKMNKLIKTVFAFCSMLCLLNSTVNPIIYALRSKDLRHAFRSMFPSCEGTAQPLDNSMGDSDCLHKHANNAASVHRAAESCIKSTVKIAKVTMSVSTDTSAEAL
Type: cell-based

Row | Structure (SMILES) | Ki [µM] | inhibition [%]
48 | O=[N+]([O-])c1ccc2c(c1)c(OCc1ccc3ccccc3c1)nn2Cc1ccc2ccccc2c1 | > 10 | 
49 | c1ccc2c(COc3nn(Cc4cccc5ccccc45)c4ccccc34)cccc2c1 | > 10 | 
50 | Nc1ccc2c(c1)c(OCc1ccccc1)nn2Cc1ccccc1 | 4 | 
51 | CCCCCn1nc(OCc2ccc3ccccc3c2)c2cc([N+](=O)[O-])ccc21 | 1.6 | 
52 | CCCCCn1nc(OCc2ccc(OC)cc2)c2cc([N+](=O)[O-])ccc21 | 0.8 | 
53 | O=[N+]([O-])c1ccc2c(c1)c(OCC1CCCCC1)nn2Cc1ccccc1 | > 40 | 39
54 | COc1ccc(COc2nn(CCN(C(C)C)C(C)C)c3ccc([N+](=O)[O-])cc23)cc1 | > 40 | 
55 | O=[N+]([O-])c1ccc2c(c1)c(OCc1ccc3ccccc3c1)nn2CCN1CCOCC1 | 1.38 | 
56 | c1ccc(COc2nn(Cc3ccccc3)c3ccccc23)cc1 | 2.6 | 
57 | O=[N+]([O-])c1ccc2c(c1)c(OCc1ccc3ccccc3c1)nn2Cc1ccccc1 | > 10 | 
58 | O=[N+]([O-])c1ccc2c(c1)c(OCc1ccccc1)nn2Cc1ccccc1 | 1.2 | 
59 | CCCCCOc1nn(CCCCC)c2ccc([N+](=O)[O-])cc12 | 1.3 | 
60 | O=[N+]([O-])c1ccc2c(c1)c(OCc1cccc3ccccc13)nn2Cc1cccc2ccccc12 | 3.8 | 
